Test results: ChEMBL document CHEMBL4840382, “Novel Substituted Heteroaryl Compounds for Treating Huntington's Disease” (ACS Med Chem Lett, 2021)

Target: Huntingtin (Homo sapiens, UniProt P42858)
Assay: Inhibition of endogenous Huntingtin protein (unknown origin) incubated for overnight in presence of MW1/MAB2166 monoclonal antibody by ELISA-based MSD electrochemiluminescence assay

Sequence of Huntingtin (P42858 whole entry): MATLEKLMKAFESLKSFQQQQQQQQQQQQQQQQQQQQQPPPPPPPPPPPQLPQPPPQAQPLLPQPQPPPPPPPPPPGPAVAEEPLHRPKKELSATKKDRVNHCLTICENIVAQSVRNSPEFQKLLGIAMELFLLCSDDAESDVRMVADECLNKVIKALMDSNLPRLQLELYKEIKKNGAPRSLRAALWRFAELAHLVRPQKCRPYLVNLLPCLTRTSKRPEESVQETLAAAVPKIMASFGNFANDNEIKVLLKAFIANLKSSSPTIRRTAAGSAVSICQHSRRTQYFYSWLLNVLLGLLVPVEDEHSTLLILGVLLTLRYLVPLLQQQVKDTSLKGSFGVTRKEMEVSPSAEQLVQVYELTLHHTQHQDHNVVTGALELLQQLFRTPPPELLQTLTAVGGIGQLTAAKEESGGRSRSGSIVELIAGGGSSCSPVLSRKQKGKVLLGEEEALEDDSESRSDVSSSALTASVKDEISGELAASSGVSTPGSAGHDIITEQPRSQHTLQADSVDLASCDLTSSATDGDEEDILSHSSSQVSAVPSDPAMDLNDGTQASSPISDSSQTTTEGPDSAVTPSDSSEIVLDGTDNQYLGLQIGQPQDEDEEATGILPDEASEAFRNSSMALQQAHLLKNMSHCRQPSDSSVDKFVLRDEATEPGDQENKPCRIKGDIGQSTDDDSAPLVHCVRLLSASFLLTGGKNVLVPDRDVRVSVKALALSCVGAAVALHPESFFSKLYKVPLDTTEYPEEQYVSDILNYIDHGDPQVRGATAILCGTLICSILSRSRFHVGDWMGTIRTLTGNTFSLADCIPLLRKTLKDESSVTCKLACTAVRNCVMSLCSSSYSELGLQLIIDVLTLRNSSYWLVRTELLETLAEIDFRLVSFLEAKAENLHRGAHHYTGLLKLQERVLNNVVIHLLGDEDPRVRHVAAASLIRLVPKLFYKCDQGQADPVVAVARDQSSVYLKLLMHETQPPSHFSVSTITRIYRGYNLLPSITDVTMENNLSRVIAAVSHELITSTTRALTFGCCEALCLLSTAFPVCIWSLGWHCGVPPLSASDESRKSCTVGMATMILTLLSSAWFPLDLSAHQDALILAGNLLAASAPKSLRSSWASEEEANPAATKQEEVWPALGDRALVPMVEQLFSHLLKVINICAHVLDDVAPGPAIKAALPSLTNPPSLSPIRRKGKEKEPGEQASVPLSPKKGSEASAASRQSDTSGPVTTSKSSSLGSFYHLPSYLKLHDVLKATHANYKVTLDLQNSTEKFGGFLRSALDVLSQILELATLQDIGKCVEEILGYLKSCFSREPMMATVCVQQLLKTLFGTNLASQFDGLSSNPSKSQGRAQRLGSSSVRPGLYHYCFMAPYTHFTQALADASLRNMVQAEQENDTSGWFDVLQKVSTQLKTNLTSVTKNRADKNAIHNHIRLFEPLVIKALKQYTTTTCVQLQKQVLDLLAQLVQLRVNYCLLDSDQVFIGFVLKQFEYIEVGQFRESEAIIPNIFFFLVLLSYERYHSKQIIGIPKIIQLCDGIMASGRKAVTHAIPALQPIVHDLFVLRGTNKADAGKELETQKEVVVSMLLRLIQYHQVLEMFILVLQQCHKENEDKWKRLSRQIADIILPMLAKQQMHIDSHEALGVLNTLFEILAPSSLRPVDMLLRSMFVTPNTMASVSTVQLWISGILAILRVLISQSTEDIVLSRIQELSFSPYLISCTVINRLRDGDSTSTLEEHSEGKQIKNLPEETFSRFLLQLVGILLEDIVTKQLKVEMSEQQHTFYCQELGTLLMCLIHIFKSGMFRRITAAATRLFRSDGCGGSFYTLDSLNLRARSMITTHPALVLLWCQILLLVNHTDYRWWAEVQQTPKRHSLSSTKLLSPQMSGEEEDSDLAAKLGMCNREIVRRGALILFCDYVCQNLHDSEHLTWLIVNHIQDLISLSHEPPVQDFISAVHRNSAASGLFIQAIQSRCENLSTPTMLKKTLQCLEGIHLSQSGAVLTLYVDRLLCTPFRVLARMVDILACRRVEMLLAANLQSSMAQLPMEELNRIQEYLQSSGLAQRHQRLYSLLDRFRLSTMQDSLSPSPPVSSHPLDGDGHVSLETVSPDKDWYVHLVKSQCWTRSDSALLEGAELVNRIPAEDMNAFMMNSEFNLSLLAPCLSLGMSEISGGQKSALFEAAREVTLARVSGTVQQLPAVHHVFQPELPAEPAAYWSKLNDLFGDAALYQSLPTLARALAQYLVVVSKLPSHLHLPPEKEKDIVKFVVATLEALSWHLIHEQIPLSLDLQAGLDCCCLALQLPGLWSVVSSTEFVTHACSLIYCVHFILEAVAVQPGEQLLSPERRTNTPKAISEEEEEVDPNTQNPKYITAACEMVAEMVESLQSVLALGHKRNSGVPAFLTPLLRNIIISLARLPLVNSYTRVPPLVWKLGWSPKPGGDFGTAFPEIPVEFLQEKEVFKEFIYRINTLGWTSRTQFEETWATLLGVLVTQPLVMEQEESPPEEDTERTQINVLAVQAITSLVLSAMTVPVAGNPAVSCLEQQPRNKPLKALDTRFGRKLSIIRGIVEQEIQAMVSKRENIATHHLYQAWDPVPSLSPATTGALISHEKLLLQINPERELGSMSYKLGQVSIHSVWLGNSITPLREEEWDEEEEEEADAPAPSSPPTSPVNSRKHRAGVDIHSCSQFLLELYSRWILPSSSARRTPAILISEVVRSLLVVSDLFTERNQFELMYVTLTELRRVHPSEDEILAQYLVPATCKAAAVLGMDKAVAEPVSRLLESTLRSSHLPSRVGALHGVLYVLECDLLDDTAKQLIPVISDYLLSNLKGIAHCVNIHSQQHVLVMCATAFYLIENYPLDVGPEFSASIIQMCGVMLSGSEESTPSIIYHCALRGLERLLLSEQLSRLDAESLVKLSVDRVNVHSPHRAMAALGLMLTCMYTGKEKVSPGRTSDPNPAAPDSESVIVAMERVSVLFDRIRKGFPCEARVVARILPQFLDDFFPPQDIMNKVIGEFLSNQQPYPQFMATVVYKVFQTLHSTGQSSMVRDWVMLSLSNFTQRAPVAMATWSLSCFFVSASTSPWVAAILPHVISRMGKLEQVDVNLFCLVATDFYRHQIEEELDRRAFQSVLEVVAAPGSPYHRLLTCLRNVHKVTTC

| IC50 [nM] | SMILES |
| --- | --- |
| 2.1 | CC1CN(c2ncc(-c3ccc(-c4cc(F)c5nn(C)cc5c4)cc3O)nn2)CCN1 (stereo unspecified) |
| 2.3 | Cc1cn2cc(-c3ccc(-c4cnc(N5CCN[C@@H](C(C)C)C5)nn4)c(O)c3)ncc2n1 |
| 2.1 | Oc1cc(-c2c[nH]nc2F)ccc1-c1cnc(N2CCN[C@@H](C3CC3)C2)nn1 |
| 2.2 | CCC1CN(c2ncc(-c3ccc(-c4cc(F)c5nc(C)cn5c4)cc3O)nn2)CCN1 (stereo unspecified) |
| 1.6 | Cn1cc2cc(-c3ccc(-c4cnc(N5CCNC(CO)C5)nn4)c(O)c3)cc(F)c2n1 (stereo unspecified) |
| 1.7 | Cn1nc2cc(-c3ccc(-c4cnc(N5CCN[C@@H](C6CC6)C5)nn4)c(O)c3)cnc2n1 |
